Reference: patent US10287253B2, “Substituted pyrimidines containing acidic groups as TLR7 modulators” (Apros Therapeutics, Inc., priority 2016, dated 2019)

Tests used:
[1] = Pharmacokinetics experiments: mouse liver-to-serum concentration (L:S); type: in vivo; settings: BALB/c mice, 10 mg/kg p.o., 5 hour post dose
Procedure: BALB/c mice were dosed p.o. with 10 mg/kg compound formulated in 0.5% carboxy methycellulose+0.5% Tween-80 suspension. Mice were bled retro-orbitally at different time points post dose. Blood was processed into serum by centrifugation followed by protein precipitation, reverse-phase gradient elution and MRM detection via ESI+mass spectrometry to determine compound concentration. Animals were sacrificed after the final blood collection (5 hour), liver removed and flash frozen in liquid nitrogen for tissue PK analyses. The liver-to-serum concentration (L:S) at 5 hour post dose is one parameter for identifying compounds with potential enrichment in liver.
Mouse liver-to-serum concentration (L:S) table below provides results.

human TLR7 (hTLR7) = human TLR7 (hTLR7) (Homo sapiens (Human), UniProt Q9NYK1); assay: HEK TLR7 assay (HEK-Blue hTLR7 cells, NF-kB/AP-1 SEAP reporter); type: cell-based; settings: HEK-Blue hTLR7 cells, 16 h incubation, SEAP read at 620-655 nm
Description: HEK-Blue™ TLR7 cells were purchased from Invivogen (San Diego, Calif.). The following description was taken from the product information sheet.
“HEK-Blue™ hTLR7 cells are designed for studying the stimulation of human TLR7 (hTLR7) by monitoring the activation of NF-kB. HEK-Blue™ hTLR7 cells were obtained by co-transfection of the hTLR7 gene and an optimized secreted embryonic alkaline phosphatase (SEAP) reporter gene into HEK293 cells. The SEAP reporter gene is placed under the control of the IFN-b minimal promoter fused to five NF-kB and AP-1-binding sites. Stimulation with a TLR7 ligand activates NF-kB and AP-1 which induce the production of SEAP, which is detected by the HEK-Blue™ Detection cell culture medium.”
A typical assay protocol involved the following steps: • 1. Cells were cultured according to the product information sheet. • 2. 10 mM compound stock in DMSO were first diluted to 3 mM and then 3-fold serially diluted using DMSO to afford a 10-pt dilution. • 3. 3 μl of the diluted DMSO were added to 57 μl HEK-Blue™ Detection media for a further 20-fold dilution. • 4. 10 μl of the diluted compound in assay media were added into 40 μl cell culture (in HEK-Blue™ Detection media) in 384-well plate. Final cell concentration=8,000 cells per well. • 5. The plates were incubated at 37° C. in 5% CO2 for 16 h. SEAP was determined using a spectrophotometer at 620-655 nm.

Sequence of human TLR7 (hTLR7) (Q9NYK1 27-1049): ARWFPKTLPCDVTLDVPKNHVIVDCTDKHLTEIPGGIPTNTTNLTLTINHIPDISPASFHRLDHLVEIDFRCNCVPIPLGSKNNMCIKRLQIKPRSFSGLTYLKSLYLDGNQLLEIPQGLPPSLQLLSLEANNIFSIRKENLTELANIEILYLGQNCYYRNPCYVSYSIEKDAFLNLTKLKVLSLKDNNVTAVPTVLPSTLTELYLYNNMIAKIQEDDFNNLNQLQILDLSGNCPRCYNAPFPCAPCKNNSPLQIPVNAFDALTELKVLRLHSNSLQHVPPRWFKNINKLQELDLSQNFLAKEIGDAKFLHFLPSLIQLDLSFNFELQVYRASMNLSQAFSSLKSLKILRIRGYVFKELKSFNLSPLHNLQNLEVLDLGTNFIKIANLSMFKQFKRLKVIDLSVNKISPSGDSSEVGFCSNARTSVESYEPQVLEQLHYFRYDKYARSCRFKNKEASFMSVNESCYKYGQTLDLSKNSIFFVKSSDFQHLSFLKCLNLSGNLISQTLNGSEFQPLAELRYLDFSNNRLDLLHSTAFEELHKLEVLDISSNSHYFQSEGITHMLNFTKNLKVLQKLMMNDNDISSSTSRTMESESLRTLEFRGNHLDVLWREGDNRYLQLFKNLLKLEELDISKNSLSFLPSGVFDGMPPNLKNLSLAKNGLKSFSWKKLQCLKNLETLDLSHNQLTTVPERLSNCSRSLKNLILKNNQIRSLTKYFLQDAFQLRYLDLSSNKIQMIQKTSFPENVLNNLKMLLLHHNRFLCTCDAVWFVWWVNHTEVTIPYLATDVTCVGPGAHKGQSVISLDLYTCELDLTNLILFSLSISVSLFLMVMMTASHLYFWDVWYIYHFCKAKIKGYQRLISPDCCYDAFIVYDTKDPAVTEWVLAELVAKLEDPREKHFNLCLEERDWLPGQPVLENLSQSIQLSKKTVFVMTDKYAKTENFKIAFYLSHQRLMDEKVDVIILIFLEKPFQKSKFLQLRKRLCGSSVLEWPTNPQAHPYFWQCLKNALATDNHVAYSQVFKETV

EC50 (human TLR7 (hTLR7)) | SMILES | L:S at 5 hr (liver-to-serum concentration) [1]
1000 to 10000 nM | CCCCNc1nc(N)nc(CCC(=O)O)c1Cc1cc(C(C)(C)C(=O)O)ccc1OC [Compound 43, 2-(3-((2-amino-4-(butylamino)-6-(2-carboxyethyl)pyrimidin-5-yl)methyl)-4-methoxy-phenyl)-2-methylpropanoic acid] | A (A = >100 represents high liver-enrichment)
100 to 1000 nM | CCCC[C@@H](CC(=O)O)Nc1nc(N)nc(C)c1Cc1cc(C(=O)NCCCP(=O)(O)O)ccc1OC [Compound 44, (S)-3-((2-amino-5-(2-methoxy-S-((3-phosphonopropyl)carbamoyl)benzyl)-6-methyl-pyrimidin-4-yl)amino)heptanoic acid] | B (B = 10-100 represents moderate liver-enrichment)
1000 to 10000 nM | CCCC[C@@H](CC(=O)O)Nc1nc(N)nc(CCC(=O)O)c1Cc1cc(C(C)(C)C(=O)O)ccc1OC [Compound 45, (S)-3-((2-amino-6-(2-carboxyethyl)-5-(5-(2-carboxypropan-2-yl)-2-methoxy-benzyl)pyrimidin-4-yl)amino)heptanoic acid] | A (A = >100 represents high liver-enrichment)
100 to 1000 nM | CCCC[C@@H](CC(=O)O)Nc1nc(N)nc(CCC(=O)O)c1Cc1cc(Cc2nn[nH]n2)ccc1OC [Compound 46, (S)-3-((5-(5-((2H-tetrazol-5-yl)methyl)-2-methoxybenzyl)-2-amino-6-(2-carboxyethyl)-pyrimidin-4-yl)amino)heptanoic acid] | B (B = 10-100 represents moderate liver-enrichment)
